In article PMC8227659, “The Metarhizium anisopliae Toxin, Destruxin A, Interacts with the SEC23A and TEME214 Proteins of Bombyx mori” (Journal of Fungi, 2021):
Where a SMILES comes first, the peptide text is derived from it. [ ]: non-standard residue; d: D form. dLac(3-vinyl) = C=CC[C@@H](O)C(=O)O; NMeV = CN[C@H](C(=O)O)C(C)C; NMeA = CN[C@@H](C)C(=O)O; βAla = NCCC(=O)O

Target: T1, BmTMEM214 (BmTEME214) (Bombyx mori, UniProt A0A8R1WLS5)
T1 construct: immobilised on biosensor
T1 sequence (A0A8R1WLS5 1-663): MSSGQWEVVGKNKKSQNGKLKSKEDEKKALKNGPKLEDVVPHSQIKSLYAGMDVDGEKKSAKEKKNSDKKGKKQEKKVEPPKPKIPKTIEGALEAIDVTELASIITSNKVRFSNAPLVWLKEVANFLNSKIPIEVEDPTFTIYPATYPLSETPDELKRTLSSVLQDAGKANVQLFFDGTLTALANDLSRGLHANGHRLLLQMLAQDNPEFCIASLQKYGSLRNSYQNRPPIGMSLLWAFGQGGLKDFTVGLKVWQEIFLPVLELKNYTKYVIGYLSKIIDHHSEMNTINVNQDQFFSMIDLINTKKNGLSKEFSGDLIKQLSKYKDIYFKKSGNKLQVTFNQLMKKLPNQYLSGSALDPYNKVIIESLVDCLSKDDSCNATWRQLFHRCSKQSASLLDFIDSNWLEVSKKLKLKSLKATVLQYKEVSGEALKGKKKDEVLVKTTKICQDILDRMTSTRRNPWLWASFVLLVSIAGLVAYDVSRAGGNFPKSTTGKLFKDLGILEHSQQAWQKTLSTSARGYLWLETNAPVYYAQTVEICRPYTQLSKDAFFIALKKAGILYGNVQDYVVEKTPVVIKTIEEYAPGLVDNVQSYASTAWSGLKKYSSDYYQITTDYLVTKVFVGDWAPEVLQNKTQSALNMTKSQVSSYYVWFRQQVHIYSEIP
Assay: bio-layer interferometry, immobilised protein
Assay type: binding
Source text: bio-layer interferometry, immobilised protein on BmTMEM214 (BmTEME214)

Compound: C=CC[C@H]1OC(=O)CCNC(=O)[C@H](C)N(C)C(=O)[C@H](C(C)C)N(C)C(=O)[C@H]([C@@H](C)CC)NC(=O)[C@@H]2CCCN2C1=O [DA, Destruxin A] (cyclo(I[NMeV][NMeA][βAla][dLac(3-vinyl)]P))
- Kd: 0.286 µM
